What was measured:
Format in all cases: functional, organism-based
Conditions in all cases: Mus musculus
[1] = tested on: P388; assay: Number of treated mice to that of control against P388 leukemia in CDF1 mice at a dose of 6 mg/kg administered intraperitoneally; active; design: dose 6 mg/kg
[2] = tested on: P388; assay: Median survival time against P388 leukemia in CDF1 mice at a dose of 1.5 mg/kg administered intraperitoneally; […]; design: dose 1.5 mg/kg
[3] = tested on: P388; assay: Median survival time against P388 leukemia in CDF1 mice at a dose of 3 mg/kg administered intraperitoneally; […]; design: dose 3 mg/kg
[4] = tested on: P388; assay: Number of treated mice to that of control against P388 leukemia in CDF1 mice at a dose of 3 mg/kg administered intraperitoneally; active; design: dose 3 mg/kg
[5] = tested on: P388; assay: Median survival time against P388 leukemia in CDF1 mice at a dose of 6 mg/kg administered intraperitoneally; […]; design: dose 6 mg/kg
[6] = tested on: P388; assay: Number of treated mice to that of control against P388 leukemia in CDF1 mice at a dose of 1.5 mg/kg administered intraperitoneally; active; design: dose 1.5 mg/kg

How did the T/C [1] turn out when CISPLATIN was run?
The T/C was 249.

And the MST [2]?
The MST was 15.5.

What about the MST [3] of the same sequence?
The MST was 18.5.

What about the T/C [4] of the same sequence?
Its T/C is 188.

What about the MST [5] of the same sequence?
The MST was 24.5.

What about the T/C [6] of the same sequence?
The T/C was 158.

Reference: ChEMBL document CHEMBL1123798, “Stereocontrolled syntheses for the six diastereomeric 1,2-dihydroxy-4,5-diaminocyclohexanes: PtII complexes and P-388 antitumor properties” (J Med Chem, 1987)
